Assay results from ChEMBL document CHEMBL2163302, “Allyl m-trifluoromethyldiazirine mephobarbital: an unusually potent enantioselective and photoreactive barbiturate general anesthetic” (J Med Chem, 2012).
Converted amounts (≈) assume the structure as drawn.

Key:
[1] = tested on: Xenopus laevis; experiment: Anesthetic activity in Xenopus laevis tadpoles assessed as loss of righting reflexes; type: functional, organism-based; conditions: Tadpole
[2] = biological target: T1, Gamma-aminobutyric acid receptor subunit alpha-1 (Homo sapiens) (UniProt P14867); conditions: HEK293S, 200 uM
T1 sequence (whole entry): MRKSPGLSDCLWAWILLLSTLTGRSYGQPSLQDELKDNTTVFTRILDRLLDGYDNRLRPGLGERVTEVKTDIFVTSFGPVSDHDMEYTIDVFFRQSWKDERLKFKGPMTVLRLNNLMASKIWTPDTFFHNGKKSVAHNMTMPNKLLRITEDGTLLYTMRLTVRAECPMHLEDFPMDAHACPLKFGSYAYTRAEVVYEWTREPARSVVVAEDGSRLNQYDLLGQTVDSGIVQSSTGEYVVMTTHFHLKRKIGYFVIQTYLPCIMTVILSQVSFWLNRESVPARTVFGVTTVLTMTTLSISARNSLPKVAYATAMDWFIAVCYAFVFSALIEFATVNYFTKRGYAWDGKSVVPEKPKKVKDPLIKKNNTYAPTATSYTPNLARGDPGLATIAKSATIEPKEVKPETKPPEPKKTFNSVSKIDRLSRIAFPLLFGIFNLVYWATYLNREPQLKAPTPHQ

[3] = biological target: T2, Gamma-aminobutyric acid receptor subunit beta-3 (Homo sapiens) (UniProt P28472); conditions: HEK293S, 200 uM
T2 sequence (whole entry): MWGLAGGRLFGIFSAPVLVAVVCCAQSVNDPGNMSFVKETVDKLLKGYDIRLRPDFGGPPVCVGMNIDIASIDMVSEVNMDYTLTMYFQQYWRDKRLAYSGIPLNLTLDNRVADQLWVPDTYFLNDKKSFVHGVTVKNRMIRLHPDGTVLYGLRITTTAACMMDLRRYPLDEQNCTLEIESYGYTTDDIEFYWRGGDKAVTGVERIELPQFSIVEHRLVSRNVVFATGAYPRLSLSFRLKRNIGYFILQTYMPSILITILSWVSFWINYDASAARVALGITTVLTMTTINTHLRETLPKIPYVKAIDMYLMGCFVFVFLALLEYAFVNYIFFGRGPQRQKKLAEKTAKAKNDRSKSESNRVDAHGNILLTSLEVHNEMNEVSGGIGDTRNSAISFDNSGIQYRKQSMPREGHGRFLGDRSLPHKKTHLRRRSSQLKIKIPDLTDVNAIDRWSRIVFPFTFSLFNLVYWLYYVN

[4] = biological target: GABA-A receptor; alpha-1/beta-2/gamma-2 (Homo sapiens) (UniProt P14867+P47870+P18507); conditions: Oocyte, 80 uM
[5] = Stability in 0.01 M Tris/HCl buffer at pH 7.4 at 4 degC days by HPLC; type: physicochemical
[6] = Aqueous solubility in 0.01 M Tris/HCl buffer at pH 7.4 by HPLC; type: physicochemical
[7] = biological target: T3, Gamma-aminobutyric acid receptor subunit beta-3 (Homo sapiens, UniProt P28472); experiment: biochemical
T3 sequence (P28472 whole entry): T2 sequence (whole entry)

C=CC[C@@]1(c2cccc(C3(C(F)(F)F)N=N3)c2)C(=O)NC(=O)N(C)C1=O
EC50 [1]: 3.7 µM | inhibition [2]: > 90% | inhibition [3]: > 90%

C=CC[C@]1(c2cccc(C3(C(F)(F)F)N=N3)c2)C(=O)NC(=O)N(C)C1=O
EC50 [1]: 38 µM | inhibition [4]: 40%

C=CCC1(c2cccc(C3(C(F)(F)F)N=N3)c2)C(=O)NC(=O)N(C)C1=O (racemic)
Stability [5]: 2.5 days | solubility ([6]; buffer): 80 µM (≈ 29.3 µg/mL)

CCC1(c2ccccc2)C(=O)NC(=O)N(C)C1=O (stereo not given) [MEPHOBARBITAL]
solubility ([6]; 0.01 M Tris/HCl buffer, read-out: solubility): 600 µM (≈ 148 µg/mL)

CCCC(C)C1(CC)C(=O)NC(=O)NC1=O (stereo not given) [PENTOBARBITAL]
EC50 [1]: 65 µM | IC50 [7]: 88 µM
